Test results: patent US20250320184A1 (SIRONAX LTD., priority 2022, published 2025)

Molecular target: T1, SARM1 (50-724) (Homo sapiens, UniProt Q6SZW1)
T1 sequence (Q6SZW1 50-724): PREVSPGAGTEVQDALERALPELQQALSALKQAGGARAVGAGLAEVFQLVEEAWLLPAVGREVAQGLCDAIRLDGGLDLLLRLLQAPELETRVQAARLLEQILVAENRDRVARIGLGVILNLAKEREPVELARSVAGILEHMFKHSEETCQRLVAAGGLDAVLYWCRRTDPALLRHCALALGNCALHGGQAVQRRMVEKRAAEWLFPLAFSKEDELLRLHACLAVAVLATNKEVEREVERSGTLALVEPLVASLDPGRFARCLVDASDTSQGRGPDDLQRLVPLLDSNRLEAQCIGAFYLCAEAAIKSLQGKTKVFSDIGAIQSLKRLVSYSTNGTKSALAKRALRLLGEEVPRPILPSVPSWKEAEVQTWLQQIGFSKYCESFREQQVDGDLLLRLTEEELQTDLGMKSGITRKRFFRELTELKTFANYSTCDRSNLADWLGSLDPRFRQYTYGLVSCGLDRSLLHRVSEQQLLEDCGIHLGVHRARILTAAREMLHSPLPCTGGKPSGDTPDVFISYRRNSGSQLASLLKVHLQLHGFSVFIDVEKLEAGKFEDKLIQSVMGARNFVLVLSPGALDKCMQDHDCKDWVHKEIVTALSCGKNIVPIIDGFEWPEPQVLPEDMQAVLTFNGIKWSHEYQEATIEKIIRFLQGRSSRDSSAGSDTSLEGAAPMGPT
Experiment: biochemical
Experimental: An enzymatic assay was performed in a 384-well plate using Dulbecco's phosphate-buffered saline (PBS) as the reaction buffer. […] The reaction was initiated by adding a mixture of 200 μM nicotinamide mononucleotide (NMN) as activator and 100 μM NAD^+ as substrate. After 1 h of incubation at room temperature, the reaction was terminated with 10 times volume of 70% acetonitrile, then centrifuged at 3800 rpm for 10 min.

Compound	IC50
CC(Nc1cc(F)c2ncn(-c3ccn[nH]3)c(=O)c2c1)c1nc(Cl)c(Cl)s1 (racemic) [Example 356rac, 6-((1-(4,5-dichlorothiazol-2-yl)ethyl)amino)-8-fluoro-3-(1H-pyrazol-5-yl)quinazolin-4(3H)-one]	< 100 nM
CC(Nc1cc(F)c2ncn(-c3nc[nH]n3)c(=O)c2c1)c1nc(Cl)c(Cl)s1 (racemic) [Example 359, 6-((1-(4,5-dichlorothiazol-2-yl)ethyl)amino)-8-fluoro-3-(1H-1,2,4-triazol-3-yl)quinazolin-4(3H)-one]	< 100 nM
CC(Nc1cc(F)c2ncn(-c3nncs3)c(=O)c2c1)c1nc(Cl)c(Cl)s1 (racemic) [Example 369, 6-((1-(4,5-dichlorothiazol-2-yl)ethyl)amino)-8-fluoro-3-(1,3,4-thiadiazol-2-yl)quinazolin-4(3H)-one]	< 100 nM
CC(Nc1cc(F)c2ncn(-c3n[nH]cc3Cl)c(=O)c2c1)c1nc(Cl)c(Cl)s1 (racemic) [Example 370, 3-(4-chloro-1H-pyrazol-3-yl)-6-((1-(4,5-dichlorothiazol-2-yl)ethyl)amino)-8-fluoroquinazolin-4(3H)-one]	< 100 nM
Cc1cn[nH]c1-n1cnc2c(F)cc(NC(C)c3nc(Cl)c(Cl)s3)cc2c1=O (racemic) [Example 371, 6-((1-(4,5-dichlorothiazol-2-yl)ethyl)amino)-8-fluoro-3-(4-methyl-1H-pyrazol-5-yl)quinazolin-4(3H)-one]	< 100 nM
CC(Nc1cc(F)c2ncn(-c3cnn[nH]3)c(=O)c2c1)c1nc(Cl)c(Cl)s1 (racemic) [Example 372, 6-((1-(4,5-dichlorothiazol-2-yl)ethyl)amino)-8-fluoro-3-(1H-1,2,3-triazol-5-yl)quinazolin-4(3H)-one]	< 100 nM
CC(Nc1cc(F)c2ncn(-c3ncnn3C)c(=O)c2c1)c1nc(Cl)c(Cl)s1 (racemic) [Example 373, 6-((1-(4,5-dichlorothiazol-2-yl)ethyl)amino)-8-fluoro-3-(1-methyl-1H-1,2,4-triazol-5-yl)quinazolin-4(3H)-one]	< 100 nM
CC(Nc1cc(F)c2ncn(-c3ncc[nH]3)c(=O)c2c1)c1nc(Cl)c(Cl)s1 (racemic) [Example 375, 6-((1-(4,5-dichlorothiazol-2-yl)ethyl)amino)-8-fluoro-3-(1H-imidazol-2-yl)quinazolin-4(3H)-one]	< 100 nM
Cc1c(Cl)c(C(C)Nc2ccc3cc[nH]c(=O)c3c2)nn1C (single isomer, unassigned) [Compound 226A]	> 1000 nM
Cc1c(Cl)c(C(C)Nc2ccc3cc[nH]c(=O)c3c2)nn1C (single isomer, unassigned) [Compound 226B]	< 100 nM
C[C@H](Nc1ccc2c(c1)NC(=O)C2(C)C)c1nc(Cl)c(Cl)s1 (single isomer, unassigned) [Compound 234A]	> 1000 nM
C[C@@H](Nc1ccc2c(c1)NC(=O)C2(C)C)c1nc(Cl)c(Cl)s1 (single isomer, unassigned) [Compound 234]	< 100 nM
CCC(C(N)=O)c1ccc(NS(=O)(=O)c2cccc(Cl)c2Cl)cc1 (single isomer, unassigned) [Compound 270A]	100 to 500 nM
CCC(C(N)=O)c1ccc(NS(=O)(=O)c2cccc(Cl)c2Cl)cc1 (single isomer, unassigned) [Compound 270]	< 100 nM
CC[C@H](C(N)=O)c1ccc(N[C@H](C)c2nc(Cl)c(Cl)s2)cc1 (single isomer, unassigned) [Compound 302A]	> 1000 nM
CC[C@@H](C(N)=O)c1ccc(N[C@H](C)c2nc(Cl)c(Cl)s2)cc1 (single isomer, unassigned) [Compound 302B]	> 1000 nM
CC[C@@H](C(N)=O)c1ccc(N[C@@H](C)c2nc(Cl)c(Cl)s2)cc1 (single isomer, unassigned) [Compound 302C]	100 to 500 nM
CC[C@H](C(N)=O)c1ccc(N[C@@H](C)c2nc(Cl)c(Cl)s2)cc1 (single isomer, unassigned) [Compound 302]	< 100 nM
O=C1NC(CO)CCc2ccc(NS(=O)(=O)c3cccc(Cl)c3Cl)cc21 (single isomer, unassigned) [Compound 304B]	500 to 1000 nM
O=C1NC(CO)CCc2ccc(NS(=O)(=O)c3cccc(Cl)c3Cl)cc21 (single isomer, unassigned) [Compound 304]	< 100 nM
Cc1c2ccc(NC(C)c3nc(Cl)c(Cl)s3)cc2nn1CC(N)=O (single isomer, unassigned) [Compound 312B]	> 1000 nM
Cc1c2ccc(NC(C)c3nc(Cl)c(Cl)s3)cc2nn1CC(N)=O (single isomer, unassigned) [Compound 312]	< 100 nM
CC(Nc1ccc2c(c1)C(=O)N(CC(N)=O)C2(C)C)c1nc(Cl)c(Cl)s1 (single isomer, unassigned) [Compound 320A]	> 1000 nM
CC(Nc1ccc2c(c1)C(=O)N(CC(N)=O)C2(C)C)c1nc(Cl)c(Cl)s1 (single isomer, unassigned) [Compound 320]	< 100 nM
CC(Nc1cc(F)c2ncn(CC(N)=O)c(=O)c2c1)c1nc(Cl)c(Cl)s1 (single isomer, unassigned) [Compound 323A]	> 1000 nM
CC(Nc1cc(F)c2ncn(CC(N)=O)c(=O)c2c1)c1nc(Cl)c(Cl)s1 (single isomer, unassigned) [Compound 323]	< 100 nM

Compound	IC50
Cc1c2ccc(NC(C)c3snc(Cl)c3Cl)cc2nn1CC(N)=O (single isomer, unassigned) [Compound 341A]	< 100 nM
Cc1c2ccc(NC(C)c3snc(Cl)c3Cl)cc2nn1CC(N)=O (single isomer, unassigned) [Compound 341B]	> 1000 nM
Cc1c2ccc(NC(C)c3sc(Cl)nc3Cl)cc2nn1CC(N)=O (single isomer, unassigned) [Compound 347A]	> 1000 nM
Cc1c2ccc(NC(C)c3sc(Cl)nc3Cl)cc2nn1CC(N)=O (single isomer, unassigned) [Compound 347]	< 100 nM
CC(Nc1ccc2c(C(F)F)n(CC(N)=O)nc2c1)c1nc(Cl)c(Cl)s1 (single isomer, unassigned) [Compound 355A]	< 100 nM
CC(Nc1ccc2c(C(F)F)n(CC(N)=O)nc2c1)c1nc(Cl)c(Cl)s1 (single isomer, unassigned) [Compound 355B]	> 1000 nM
Cc1nn(CC(N)=O)c(=O)c2cc(NC(C)c3nc(Cl)c(Cl)s3)ccc12 (single isomer, unassigned) [Compound 357]	< 100 nM
Cc1nn(CC(N)=O)c(=O)c2cc(NC(C)c3nc(Cl)c(Cl)s3)ccc12 (single isomer, unassigned) [Compound 358]	> 1000 nM
Cc1nc(C(C)Nc2ccc3c(C)n(CC(N)=O)nc3c2)sc1Cl (single isomer, unassigned) [Compound 362]	< 100 nM
Cc1nc(C(C)Nc2ccc3c(C)n(CC(N)=O)nc3c2)sc1Cl (single isomer, unassigned) [Compound 363]	> 1000 nM
CC(Nc1ccc2c(C(F)(F)F)n(CC(N)=O)nc2c1)c1nc(Cl)c(Cl)s1 (single isomer, unassigned) [Compound 367]	< 100 nM
CC(Nc1ccc2c(C(F)(F)F)n(CC(N)=O)nc2c1)c1nc(Cl)c(Cl)s1 (single isomer, unassigned) [Compound 368]	> 1000 nM
[2H]C(C)(Nc1ccc2c(C)n(CC(N)=O)nc2c1)c1nc(Cl)c(Cl)s1 (single isomer, unassigned) [Compound 377]	< 100 nM
[2H]C(C)(Nc1ccc2c(C)n(CC(N)=O)nc2c1)c1nc(Cl)c(Cl)s1 (single isomer, unassigned) [Compound 378]	> 1000 nM
Cc1sc(C(C)Nc2ccc3c(C)n(CC(N)=O)nc3c2)nc1Cl (single isomer, unassigned) [Compound 380]	< 100 nM
Cc1sc(C(C)Nc2ccc3c(C)n(CC(N)=O)nc3c2)nc1Cl (single isomer, unassigned) [Compound 381]	> 1000 nM
CC(Nc1ccc2nc[nH]c(=O)c2n1)c1c(Cl)ccc(F)c1Cl (single isomer, unassigned) [Compound 382]	< 100 nM
CC(Nc1ccc2nc[nH]c(=O)c2n1)c1c(Cl)ccc(F)c1Cl (single isomer, unassigned) [Compound 383]	> 1000 nM
CC(Nc1ccc2nc[nH]c(=O)c2n1)c1ccc(F)c(Cl)c1Cl (single isomer, unassigned) [Compound 385]	> 1000 nM
CC(Nc1ccc2nc[nH]c(=O)c2n1)c1ccc(F)c(Cl)c1Cl (single isomer, unassigned) [Compound 386]	< 100 nM
CC(Nc1ccc2nc[nH]c(=O)c2n1)c1c(F)ccc(Cl)c1Cl (single isomer, unassigned) [Compound 387]	< 100 nM
CC(Nc1ccc2nc[nH]c(=O)c2n1)c1c(F)ccc(Cl)c1Cl (single isomer, unassigned) [Compound 388]	> 1000 nM
Cc1c2c(F)cc(NC(C)c3nc(Cl)c(Cl)s3)cc2nn1CC(N)=O (single isomer, unassigned) [Compound 390]	> 1000 nM
Cc1c2c(F)cc(NC(C)c3nc(Cl)c(Cl)s3)cc2nn1CC(N)=O (single isomer, unassigned) [Compound 391]	< 100 nM
COc1nccc(C(C)Nc2ccc3c(c2)C(=O)NCC3)c1Cl (single isomer, unassigned) [Example 95]	500 to 1000 nM
